Experimental data reported in patent US12186435B2, “Sol-gel/hydrogel therapeutic delivery system and methods thereof” (ALBERT EINSTEIN COLLEGE OF MEDICINE, priority 2017, dated 2025).
Entries after “also recorded” stand apart in the source; their conditions may differ. Each block holds one compound with its values, some of them ahead of it.

Assays:
[1] = Release of NACSNO and GSNO from particles into aqueous buffer; type: physicochemical; conditions: for release from original rapid gelation platform: deliverable added before condensation, aqueous buffer
[2] = Release of fluorescent labeled lipids from Br1 particles, with or without 3% octyl-TMOS doping; type: physicochemical
Source text: FIG. 13. Effects of doping del with 3% octyl-TMOS on release of lipids. Plots from top to bottom, respectively: Cholesterol-BDP, Chol/3% Octyl, Palmitate-NBD, and Palm/3% Octyl.
Fluorescent labeled cholesterol and palmytic acid were used to show both loading and release. Procyanidine is a potent antioxidant that is being evaluated for use in the treatment of osteoarthritis.
Effects of Doping Del with 3% Octyl-TMOS on Release of Lipids (FIG. 13)
3% octyl doped gel changed cholesterol release(from 80% released down to 55% released), but had no effect on palmitate release.

[3] = Evans Blue release from particles in water; type: physicochemical; conditions: for release from amine (APTS) doped particles: hydrogel doped with amine groups
Experimental: FIGS. 18A-18B. Curcumin (A) and (B) Evans Blue APTS doped gels. The gels were doped with 0.3% APTS. Rate of condensation changed by mM NaOH concentration (75, 60, 30, 12) added prior to condensation step. Increasing gel times for decreasing amount of added NaOH: (2 mins, 30 mins, 15 hours, 1.5 days: 75, 60, 30, 12 mM NaOH). Curcumin release in ethanol; Evans blue release in water. Both plots from top to bottom, respectively, at left side of plots: 75 mM, 60 mM, 30 mM and 12 mM.
Amines are incorporated by mixing hydrolyzed APTS with hydrolyzed TMOS. The resulting sol-gel monolith is loaded with the water soluble dye Evans Blue which has four negatively charged groups.

[4] = Curcumin release from particles into ethanol or methanol; type: physicochemical
Source text: FIG. 2. A comparison of release profiles form curcumin loaded nanoparticles. “Brinker” (Br) is the high-density sol-gel that took 7 days to gel and curcumin added after the gelation is complete. “9d dry” is the original formulation air dried for 9 days. Release is of suspended particles into ethanol or methanol. Plots from top to bottom, respectively: EtOH original, EtOH 9d dry, MeOH Brinker, and EtOH Brinker.
Release from Nanoparticles was Made Via: • the Br(Brinker) method where the curcumin is loaded into the empty Br sol-gel block (slow gelation protocol), • The original hydrogel platform where the curcumin is mixed in the initial pre-condensation mixture which gels much more rapidly than the Br sol-gels, • Curcumin loaded in the original fast gelling platform but the resulting curcumin containing sol-gel is air dried for nine days (to promote enhanced density-decreasing pore size.
The effect of added PEG400 on release rates of NACSNO (SNO derivative of N-acetylcysteine) and curcumin from nanoparticles generated using the new block gel protocol (Universal Drug Delivery Platform). • New protocol in which NACSNO and curcumin are infused into a gel block prepared from TMOS using the standard Brinker method for gelation. Once the gel is loaded with the deliverables, the gel is lyophilized and then milled to produce the loaded nanoparticles. • Four separate gels are prepared for each of the deliverables • One gel has no added PEG whereas the other three have varying amounts of added PEG400. The percentage of added PEG shown in the figures refers to the percentage of PEG added compared to what was added in our original protocol.

[5] = in methanol
[6] = gel block doped with octyl group

release from original rapid gelation platform [1]: rapid release
stability in original rapid gelation platform ([1]; prepared in original rapid gelation platform): unstable
SMILES: N[C@@H](CCC(=O)N[C@@H](CSN=O)C(=O)NCC(=O)O)C(=O)O [GSNO, S-nitrosothiol-GSH]

effect of 3% octyl doping on release ([2]; 3% octyl doped gel vs undoped): no effect
SMILES: CCCCCCCCCCCCCCCC(=O)O [palmitate]

effect of increasing addition of base prior to condensation on release ([3]; Br sol-gels doped with APTS): increase in release
release from amine (APTS) doped particles ([3]; listed as Evans blue): slows
SMILES: Cc1cc(-c2ccc(/N=N/c3ccc4c(S(=O)(=O)O)cc(S(=O)(=O)O)c(N)c4c3O)c(C)c2)ccc1/N=N/c1ccc2c(S(=O)(=O)O)cc(S(=O)(=O)O)c(N)c2c1O [Evans Blue]
release from amine (APTS) doped particles [3]: slowed by several orders or magnitude; also recorded: substantially slows release
release from undoped particles ([3]; without amine doping, aqueous environment): immediate and complete; also recorded: near instantaneous

release from original rapid gelation platform [1]: almost immediate release
effect of octyl group doping on release [1, 6]: slows release
SMILES: CC(=O)N[C@@H](CSN=O)C(=O)O [NACSNO, S-nitrosoN-acetylcysteine]

effect of increasing addition of base prior to condensation on release ([4]; Br sol-gels doped with APTS): increase in release
effect of octyl group doping on release [4, 6]: slows release
effect of APTS on release ([4]; slow gel, >1 day to form): increased
release compared to the original platform and its air dried version ([4]; slow gelling Br protocol, curcumin loaded after gelation): dramatic slow down in release
effect of increasing pH in condensation step on release ([4]; sol-gel doped with 25% PEG400, release in ethanol): increases release
SMILES: COc1cc(/C=C/C(=O)CC(=O)/C=C/c2ccc(O)c(OC)c2)ccc1O [curcumin, Curcumin]

release from new protocol nanoparticles [5]: slow release
SMILES: COc1ccc2cc([C@H](C)C(=O)O)ccc2c1 [Naproxen]

cholesterol release, released ([2]; 3% octyl doped gel): 55%
cholesterol release, released ([2]; gel without octyl doping (Br1)): 80%
SMILES: CC(C)CCC[C@@H](C)[C@H]1CC[C@H]2[C@@H]3CC=C4C[C@@H](O)CC[C@]4(C)[C@H]3CC[C@]12C [cholesterol]
